The text below walks through data of patent US6479251B1, “Colorimetric test for agents that induce mitochondrial dysfunction” (priority 1999, dated 2002).

Holding throughout (assay type): cell-based
In data set [1] the test system is S. cerevisiae strain YPH499. The data set can be described thus: Colorimetric test: red to white colony colour change on YPD agar after treatment. On the procedure:
(§1) FIGS. 1A and 1B show visual color identification of mitochondrial dysfunction. The wild type S. cerevisiae YPH499 was gown in YPD (1% yeast extract, 2% bactopeptone and 2% dextrose) to log phase at 30° C. The log phase culture was centrifuged, resuspended in water containing adriamycin (150 μg/ml) for one hour. Appropriate dilutions of the culture were plated on YPD agar and incubated at 30° C. for 3-4 days. […] FIG. 1B: white colonies from treated cells in FIG. 1A wee replicated on to agar medium containing 2% dextrose (left) and 2% glycerol (right).
The wild type S. cerevisiae YPH499 was grown in YPD to log phase at 30° C. The culture was centrifuged, resuspended in water containing various concentrations of adriamycin as indicated for one hour. Appropriate dilutions of the culture were plated on YPD agar and incubated at 30° C. Colonies were counted after 3-4 days. Values presented are the average of four determinants.
FIGS. 5A, 5B, and 5C show the percentage of white colonies produced after treatment with physical or chemical agents. Exponentially growing cells were treated with various doses of UV (FIG. 5A) or various lengths of time (MMS (FIG. 5B) and H2O2 (FIG. 5C)). For UV treatment appropriate dilutions of culture were plated on YPD agar and exposed to UV using STRATALINKER (Stratagene). For MMS and H2O2 treatments, cells were exposed in liquid YPD medium.
(§2) The yeast S. cerevisiae strain YPH499 (a ura3-52, lys2-801, ade2-101, trpl-63, his3-200, leul-1) was grown in YPD to log phase. Cell were then harvested and suspended in water containing various concentration of adriamycin for one hour. In order to test whether white colonies were defective in mitochondrial function, we transferred the colonies to an agar media containing glycerol (nonfermentable carbon source). Utilization of glycerol by an eukaryotic cell requires intact mitochondrial function (2). […] The number of surviving colonies that were white reached about 30% at 150 μglml concentration.

Data set [2] relates to S. cerevisiae strain YPH499. The data set can be described thus: Growth of white colonies on glycerol (nonfermentable carbon source) agar. On the procedure: as §1, §2
Data set [3] relates to mitDNA of S. cerevisiae white colonies. As for the experimental part:
FIGS. 3A-3D show mitochondrial genome changes induced by adriamycin. Various white S. cerevisiae colonies produced after treatment with adriamycin were grown to log phase and stained with DAPI, which stains DNA. FIG. 3A: wild type; FIG. 3B: a Rho^0 strain (devoid of mitochondrial genome); FIG. 3C: a representative white cell lacking mitochondrial genome; and FIG. 3D: a representative cell containing mutant mitochondrial DNA.
White S. cerevisiae colonies produced after treatment with physical or chemical agents were grown to log phase and stained with DAPI. FIG. 6A: Wild type; FIG. 6B: A Rho^0 strain; FIG. 6C: adriamycin; FIG. 6D: hydrogen peroxide; FIG. 6E: UV; FIG. 6F: Methylmethane sulfonate. For FIGS. 6C-F, the cells on the right contains mutant mitDNA and the cell on the left lacks a mitochondrial genome.
DNA was stained with a fluorescent dye, 4,6-diamidino-2-phenylindole (DAPI)(2). […] In this study, a known yeast strain lacking mitDNA (Rho^0) served as a negative control (FIG. 3B, only nuclear DNA is stained).

Data set [4] concerns S. cerevisiae diploid cells (white colonies x Rho0). The data set can be described thus: Mating of haploid white colonies with Rho0 strain YPH 500, growth of diploids on glycerol medium. The settings on record: a total of 143 diploid cells from white colonies after adriamycin treatment mated with Rho0 (FIG. 4). On the procedure: FIGS. 4A and 4B show growth comparison of haploid and diploid S. cerevisiae cells. FIG. 4A: Various white colonies produced after treatment with adriamycin were streaked on YP glycerol plates. FIG. 4B: The same white colonies were mated with an opposite mating type strain of yeast lacking mitochondrial DNA on YPD plates. The diploid yeast strains were tested for growth on YP glycerol medium.
The genetic approach employed involved mating haploid white colonies generated after adriamycin treatment (shown in FIG. 2, “a” mating type) with a haploid Rho^0 strain (of opposite mating type “α” YPH 500 (ura3-52, lys2-801, ade2-101, trpl-63, his3-200, leu2-1) lacking mitDNA (3). The diploid cells (a total of 143) were tested for growth on glycerol medium. If the white cells contained a mutation in a nuclear gene affecting the mitochondrial function, it can be expected that diploid cells will grow on glycerol because a nuclear defect can be complemented with Rho^0 (because it contains intact nuclear DNA but lacks mitDNA). […] Together, these studies indicate that adriamycin preferentially damages mitDNA. This preferential damage by adriamycin can result either in complete loss of mitDNA (due to severe damage) and/or mutations in mitDNA (due to minor damage FIG. 3).

With `OO` [H2O2, hydrogen peroxide], the “increase in white colonies” value in data set [1] is “did not result in increased white colonies”.
As to `COS(C)(=O)=O` [MMS, methyl methane sulphonate], the “increase in white colonies” value in data set [1] was “did”. Besides, the “growth of white colonies on glycerol” value in data set [2] is “do not grow on glycerol”. Further, the “microscopic and genetic tests of white colonies (mitDNA status)” value in data set [3] (white colonies obtained after treatment with physical or chemical agents (FIG. 6)) is reported as “either contained mutant mitDNA or lacked mitDNA at all”.
Regarding `COc1cccc2c1C(=O)c1c(O)c3c(c(O)c1C2=O)C[C@@](O)(C(=O)CO)C[C@@H]3O[C@H]1C[C@H](N)[C@H](O)[C@H](C)O1` [adriamycin], in data set [1] (adriamycin 150 μglml in water for one hour, plated on YPD agar, 30° C., 3-4 days), the “number of surviving colonies that were white” value is on record as “about 30%”. Also, the “white colonies versus dose” value in data set [1] (various concentrations of adriamycin in water for one hour (FIG. 2)) is on record as “increase number of white colonies with increasing dose”. The “growth of randomly chosen white colonies on glycerol plates” value in data set [2] (white colonies obtained after adriamycin treatment (FIG. 1B)) is on record as “none were able to grow”. The “DAPI DNA staining of white colonies (mitDNA present or lost)” value in data set [3] (white colonies obtained after adriamycin treatment (FIG. 3)) was “two types of DNA staining”. In data set [4], the “growth of diploid cells on glycerol medium” value is recorded as “none grew on glycerol medium”.
